Reference: patent publication US5587382A, “6,9-bis[(2-aminoethyl) amino]benzo [g]isoquinoline-5,10- dione dimaleate; an aza-anthracenedione with reduced cardiotoxicity” (priority 1995, dated 1996)

Assays:
heart [1] = test: Cardiotoxic effects (general statement of the invention); conditions: in vivo
[2] = Cyclic voltammetry in aqueous media (redox potential); assay type: physicochemical; conditions: for E1/2 (reduction potential): room temperature, saturated calomel reference, scan rate 0.4 V/s
Protocol: The anthracene 9,10-dione moiety is known to undergo redox processes. The results of cyclic voltammetry measurements in aqueous media are reported in FIG. 1 and summarized as reduction potentials in Table 1.
Cyclic voltammetry (CV) measurements were performed at room temperature using an Amel scanning potentiostat at the following settings: Initial potential -0.1 V, switching potential […], scan rate 0.4 V/s. A three electrode system was used with a reference saturated calomel electrode and a platinum wire counter electrode; a hanging mercury drop electrode (HMDE, Metrohm) was the working electrode.

tumors = conditions: cited from earlier work; for antitumor activity: in vivo; for cardiac toxicity (background): clinical / background
heart [3] = test: Histopathological evaluation of potential cardiotoxic effect in nude mice during antitumor activity tests (MX-1 bearing); assay type: in vivo, mouse (CD1 Nu/Nu female); conditions: for cardiotoxicity (conclusion): antitumor protocol, equiactive doses
Protocol: During an antitumor activity experiment histopathologic examination was carried out on plastic sections (blue toluidine stained) of hearts of some animals sacrificed at the end of the observation period.
In this experiment (Table 2) CD1 Nu/Nu female mice (8 animals/groups) were transplanted sc with tumor fragments of human mammary carcinoma MX-1. BBR 2778 (60 mg/kg/day) and mitoxantrone (4.5 mg/kg/day) (i.e., at their equiactive doses) were i.v. given once a week for three weeks when tumor weight reached an average of 100-200 mg; animals were sacrificed 60 days after the last treatment.
Myocardial lesions were scored according to Bertazzoli, C. et al. (1979) Cancer Treat., Rep.: 63, 1877-1883. Briefly, lesions are scored as follows:
1: sarcoplasmatic microvacuolizations and/or inclusions, and either interstitial or cellular edema;
2: as in 1 plus either sarcoplasmatic macrovacuolizations or one or more of atrophy, necrosis, fibrosis, endocardial lesions and thrombi;
0.5: less than 10 single altered myocytes in the whole heart section;
1: scattered single altered myocytes (>10);
2: scattered small groups of altered myocytes;
3: widely spread small groups of altered myocytes;
4: confluent groups of altered myocytes;
The product of severity degree (1 or 2) times the extension degree (from 0 to 5) gives the T.C.S. (total cardiotoxicity score, graded from 0 to 10) for each animal. Mean Total Score (M.T.S.) for each group is calculated from T.C.S. of all the group animals.

heart [4] = test: Single dose cardiotoxicity in i.v. treated rats (Study No. 1); assay type: in vivo, rat (S.D. Crl:CDBR, male); conditions: 6 weeks; for Heart Weight (%): control 100
Source text: (§1) In the rat (Study No. 1, Table No. 3), the respective effects on the myocardium of BBR 2778 and mitoxantrone were compared. Both drugs were i.v. administered in single equitoxic doses (LD10). In the mouse (Study No. 2, Table No. 4), the respective effects on the myocardium of BBR 2778, mitoxantrone, and doxorubicin, using multiple i.v. equiactive doses with similar activity on solid tumors, were compared. Also in the mouse, in a different study (Study No. 3, Table No. 5), the respective effect on the myocardium of i.v. BBR 2778 dose-active range on murine leukemia was compared with mitoxantrone.
(§2) Cardiac lesions in the three studies were evaluated in accordance with a qualitative/quantitative method expressly devised for anthracyclines (Bertazzoli C. et al. Cancer Treat. Rep. 63:1877-1883, 1979; Solcia E. et al. Tumori, 67:461-472, 1981).
Strain: S.D. (Crl:CDBR)
mixtoxantrone 4.9 mg/kg
(§3) heart weight and microscopic lesions
paraffin sections of heart (formalin fixed
and haematoxilineos in stained) collected 6
(§4) the product of severity degree (1 or 2)
(§5) times the extension degree (from 0 to 5)
(§6) gives the T.C.S. (Total Cardiotoxicity
(§7) Score, graded from 0 to 10) for each
(§8) animal. M.T.S. (Mean Total Score) for each
(§9) group is calculated from the T.C.S. of all

leukemia = test: Previous antitumor activity studies against leukemia in CD2F1 mice; assay type: in vivo, mouse (CD2F1); conditions: BBR 2778 12 mg/kg/day, mitoxantrone 3 mg/kg/day i.v.
heart [5] = test: Multiple dose cardiotoxicity in i.v. treated mice (Study No. 2); assay type: in vivo, mouse (C57BL/6NCrlBR, female)
Source text: as §1, §2, §3
(§10) plastic sections of heart (formalin fixed
and blue toluidine stained) collected 60
and 90 days from the first treatment
as §4, §5, §6, §7, §8, §9

[6] = equivalent concentrations; cited from earlier work
heart [7] = test: Multiple dose cardiotoxicity in i.v. treated mice (Study No. 3); assay type: in vivo, mouse (CD1, female)
Source text: as §1, §2
______________________________________
mixtoxantrone 1.1, 1.8 & 2.5
Treatment: twice a week for 5 weeks (10 dosing)
low- and mid- dose treated groups;
twice a week for 4 weeks (7 dosing) in high-
dose treated groups. In these groups, the
administration was suspended because of the
high-dose treated group.
as §10
and blue toluidine stained) collected 78
and 139 days from the first administration
as §4, §5, §6, §7, §8, §9

myocardium = conditions: mice; cited from earlier work
bone marrow = test: Myelotoxicity study (RBC, WBC, PLT counts); assay type: in vivo, mouse (CD2F1, male); conditions: 3 mg/kg/day i.v. days 1, 4, 7; at nadir day
Protocol: Using CD2F1 mice, the respective effects on the bone marrow of BBR 2778 and mitoxantrone were compared. The drugs were administered i.v. in multiple doses.
Compounds: BBR 2778 12 mg/kg/day
mixtoxantrone 3 mg/kg/day
Parameters: red blood cells (RBC), white blood cells
Equipment: Delcon Cellanalyzer CA580A

[8] = polarographic; Showalter et al 1986; cited from earlier work
human liver = conditions: metabolic reduction by NADPH; cited from earlier work
[9] = cyclic voltammetry, aqueous media
[10] = 65.1 mg/kg i.v. single dose (LD10)
[11] = 6 mg/kg i.v., cumulative 24 mg/kg, 60 days after first administration
[12] = 6 mg/kg i.v., cumulative 24 mg/kg, 90 days after first administration
[13] = 7.5 mg/kg i.v., cumulative 30 mg/kg, 60 days after first administration
[14] = 7.5 mg/kg i.v., cumulative 30 mg/kg, 90 days after first administration
[15] = 4.9 mg/kg i.v. single dose (LD10)
[16] = 3 mg/kg i.v., cumulative 12 mg/kg, 60 days after first administration
[17] = 3 mg/kg i.v., cumulative 12 mg/kg, 90 days after first administration
[18] = 4 mg/kg i.v., cumulative 16 mg/kg, 60 days after first administration
[19] = 4 mg/kg i.v., cumulative 16 mg/kg, 90 days after first administration

## NCCNc1ccc(NCCN)c2c1C(=O)c1ccncc1C2=O [6,9-bis[(2-aminoethyl)amino]benzo[g]isoquinoline-5,10-dione]
Heart [1]
  cardiotoxic effects: devoid of cardiotoxic effects

## O=C1c2ccccc2C(=O)c2c(NCCNCCO)ccc(NCCNCCO)c21 [Ametantrone]
[2]; [9]
  E1/2 (reduction potential): -0.68
tumors
  antitumor activity: significant antitumor activity

## NCCNc1ccc(NCCN)c2c1C(=O)c1ccncc1C2=O.O=C(O)/C=C\C(=O)O.O=C(O)/C=C\C(=O)O [BBR 2778, 6,9-bis[(2-aminoethyl)amino]benzo[g]isoquinoline-5,10-dione dimaleate]
Heart [3]
  cardiotoxicity (conclusion): does not exert significant cardiotoxicity patterns
[2]; [9]
  redox process: reversible
  E1/2 (reduction potential): -0.54
[2]; vs mitoxantrone
  reduction potential lower than for mitoxantrone (difference): 0.2-0.3 V
Heart [4]; [10]
  M.T.S. (Mean Total Score): 0
  No. affect. hearts / No. exam. hearts: 1/9
  Heart Weight (%): -6%
Heart [1]
  cardiotoxic effects: devoid of cardiotoxic effects
leukemia
  antitumor efficacy against leukemia at the dose and schedule employed: equally effective

## COc1cccc2c1C(=O)c1c(O)c3c(c(O)c1C2=O)C[C@@](O)(C(=O)CO)C[C@@H]3O[C@H]1C[C@H](N)[C@H](O)[C@H](C)O1 [Doxorubicin]
tumors
  cardiac toxicity (background): severe cumulative and irreversible cardiac toxicity
  antitumor activity: outstanding antitumor activity
Heart [5]; [11]
  M.T.S.: 1
  No. affect. hearts / No. exam. hearts: 6/6
Heart [5]; [12]
  M.T.S.: 1.1
  No. affect. hearts / No. exam. hearts: 6/6
Heart [5]; [13]
  M.T.S.: 1.5
  No. affect. hearts / No. exam. hearts: 6/6
Heart [5]; [14]
  M.T.S.: 2.2
  No. affect. hearts / No. exam. hearts: 6/6

## O=C1c2c(O)ccc(O)c2C(=O)c2c(NCCNCCO)ccc(NCCNCCO)c21 [Mitoxantrone]
[6]
  in vitro efficacy relative to doxorubicin: higher efficacy than doxorubicin at equivalent concentrations
Heart [3]; 4.5 mg/kg/day i.v. q7d × 3
  No. affect. hearts / No. exam. hearts: 5/5
Heart [3]
  cardiotoxicity (conclusion): strongly cardiotoxic
[2]; [9]
  E1/2 (reduction potential): -0.74
Heart [4]; [15]
  M.T.S. (Mean Total Score): 6
  No. affect. hearts / No. exam. hearts: 7/7
  Heart Weight (%): -44%
Heart [7]; 1.1 mg/kg i.v., cumulative 11 mg/kg, 78 days after first administration
  M.T.S.: 4
Heart [7]; 1.1 mg/kg i.v., cumulative 11 mg/kg, 139 days after first administration
  M.T.S.: 6
Heart [7]; 1.8 mg/kg i.v., cumulative 18 mg/kg, 78 days after first administration
  M.T.S.: 6.5
Heart [7]; 1.8 mg/kg, 139 days (footnote diamond-solid)
  Total cardiotoxicity score: 8
Heart [7]; 2.5 mg/kg i.v., cumulative 17.5 mg/kg, 78 days after first administration
  M.T.S.: 7.1
Heart [7]; 2.5 mg/kg i.v., cumulative 17.5 mg/kg, 139 days after first administration
  No. affect. hearts / No. exam. hearts: 0/0
Heart [7]; affected hearts marked °: 1.1 mg/kg 78 and 139 days, 1.8 and 2.5 mg/kg 78 days
  Total cardiotoxicity score: 3-8
Heart [7]; high dose (2.5 mg/kg/day), administration suspended after 7 dosings
  mortality rate: high mortality rate
myocardium
  focal myocardial damage (histology): high incidence of focal myocardial damage in mice similar to that observed with doxorubicin
Bone marrow
  leukopenia vs. controls: 70%
[8]
  E1/2: -0.775 V
Human liver
  microsomal O2.^- formation: does not result in a significant increase in microsomal O2.^- formation
leukemia
  antitumor efficacy against leukemia at the dose and schedule employed: equally effective
tumors
  cardiac toxicity (background): diminished cardiotoxicity when compared to doxorubicin
tumors; clinical studies
  toxic side effects in clinical studies relative to doxorubicin: far less toxic side effects than those resulting from doxorubicin therapy
Heart [5]; [16]
  M.T.S.: 1.4
  No. affect. hearts / No. exam. hearts: 6/6
Heart [5]; [17]
  M.T.S.: 2.6
  No. affect. hearts / No. exam. hearts: 5/5
Heart [5]; [18]
  M.T.S.: 1.25
  No. affect. hearts / No. exam. hearts: 6/6
Heart [5]; [19]
  M.T.S.: 2.5
  No. affect. hearts / No. exam. hearts: 6/6

## COc1cccc2c1C(=O)c1c(O)c3c(c(O)c1C2=O)C[C@@](O)(C(C)=O)C[C@@H]3O[C@H]1C[C@H](N)[C@H](O)[C@H](C)O1 [daunorubicin]
[8]
  E1/2: -0.625 V
tumors
  cardiac toxicity (background): severe cumulative and irreversible cardiac toxicity
  antitumor activity: outstanding antitumor activity
